# Test results: PubChem BioAssay AID248 (DTP/NCI, 2004)
# Values joined by “and” are separate entries in the source; they are usually repeats but may differ in a detail not shown here. Identical values can stand only once. Toxic doses and inconclusive results are not listed.
# Tested on: L1210 leukemia ip in BDF1 mice, survival T/C
# Assay: NCI In Vivo Anticancer Drug Screen. Data for tumor model L1210 Leukemia (intraperitoneal) in B6D2F1 (BDF1) mice
# Conditions: endpoint: mean survival time, higher = longer survival
# Summary of the method: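 Transplanted-tumor mice were given test agent; controls received vehicle only. Survival readings from the two groups were divided (treated over control).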
# [1] = dose: 100.0 mg/kg/injection, schedule: Q01DX001 (ip), vehicle: saline
# [2] = dose: 100.0 mg/kg/injection, schedule: Q04DX003 (ip), vehicle: acetone
# [3] = dose: 200.0 mg/kg/injection, schedule: Q01DX001 (ip), vehicle: saline
# [4] = dose: 200.0 mg/kg/injection, schedule: Q04DX003 (ip), vehicle: acetone
# [5] = dose: 400.0 mg/kg/injection, schedule: Q01DX001 (ip), vehicle: saline
# [6] = dose: 400.0 mg/kg/injection, schedule: Q04DX003 (ip), vehicle: acetone
# [7] = dose: 100.0 mg/kg/injection, schedule: Q01DX009 (ip), vehicle: Klucel (hydroxypropylcellulose) (HPC)
# [8] = dose: 200.0 mg/kg/injection, schedule: Q01DX009 (ip), vehicle: Klucel (hydroxypropylcellulose) (HPC)
# [9] = dose: 400.0 mg/kg/injection, schedule: Q01DX009 (ip), vehicle: Klucel (hydroxypropylcellulose) (HPC)
# [10] = dose: 100.0 mg/kg/injection, schedule: Q04DX003 (ip), vehicle: Klucel (hydroxypropylcellulose) (HPC)
# [11] = dose: 200.0 mg/kg/injection, schedule: Q04DX003 (ip), vehicle: Klucel (hydroxypropylcellulose) (HPC)
# [12] = dose: 400.0 mg/kg/injection, schedule: Q04DX003 (ip), vehicle: Klucel (hydroxypropylcellulose) (HPC)
# [13] = dose: 100.0 mg/kg/injection, schedule: Q04DX003 (ip), vehicle: saline
# [14] = dose: 100.0 mg/kg/injection, schedule: Q04DX003 (ip), vehicle: saline with Tween-80
# [15] = dose: 200.0 mg/kg/injection, schedule: Q04DX003 (ip), vehicle: saline with Tween-80
# [16] = dose: 400.0 mg/kg/injection, schedule: Q04DX003 (ip), vehicle: saline with Tween-80
# [17] = dose: 100.0 mg/kg/injection, schedule: Q04DX002 (ip), vehicle: saline with Tween-80
# [18] = dose: 200.0 mg/kg/injection, schedule: Q04DX002 (ip), vehicle: saline with Tween-80
# [19] = dose: 400.0 mg/kg/injection, schedule: Q04DX002 (ip), vehicle: saline with Tween-80
# [20] = dose: 50.0 mg/kg/injection, schedule: Q01DX001 (ip), vehicle: carboxymethylcellulose (CMC)
# [21] = dose: 100.0 mg/kg/injection, schedule: Q01DX001 (ip), vehicle: carboxymethylcellulose (CMC)
# [22] = dose: 200.0 mg/kg/injection, schedule: Q01DX001 (ip), vehicle: carboxymethylcellulose (CMC)
# [23] = dose: 400.0 mg/kg/injection, schedule: Q01DX001 (ip), vehicle: carboxymethylcellulose (CMC)
# [24] = dose: 100.0 mg/kg/injection, schedule: Q01DX001 (ip), vehicle: Klucel (hydroxypropylcellulose) (HPC)
# [25] = dose: 200.0 mg/kg/injection, schedule: Q01DX001 (ip), vehicle: Klucel (hydroxypropylcellulose) (HPC)
smiles,measurement,setting,value
N#CC(c1ccc(Cl)cc1)c1ccc(N(CCO)CCO)cc1 (centres undefined),T/C,[1],99 % of control
same,T/C,[2],103 % of control
same,T/C,[3],99 % of control
same,T/C,[4],97 % of control
same,T/C,[5],86 % of control
same,T/C,[6],91 % of control
COc1ccc(Cl)cc1NC(=O)c1cccc(Cl)c1,T/C,[7],110 % of control
same,T/C,[8],110 % of control
same,T/C,[9],104 % of control
Nc1nc(-c2ccccc2)c(CCCCc2ccccc2)c(=O)[nH]1,T/C,"dose: 50.0 mg/kg/injection, schedule: Q01DX Z (ip), vehicle: carboxymethylcellulose (CMC)",97 % of control
same,T/C,"dose: 200.0 mg/kg/injection, schedule: Q01DX Z (ip), vehicle: carboxymethylcellulose (CMC)",89 % of control
CCCCN(CCCC)CC(=O)Nc1ccc(C(=O)OCC(C)C)cc1,T/C,"dose: 20.0 mg/kg/injection, schedule: Q01DX Z (ip), vehicle: saline",97 % of control
same,T/C,"dose: 30.0 mg/kg/injection, schedule: Q01DX Z (ip), vehicle: saline",98 % of control
same,T/C,"dose: 45.0 mg/kg/injection, schedule: Q01DX Z (ip), vehicle: saline",106 % of control
same,T/C,"dose: 68.0 mg/kg/injection, schedule: Q01DX Z (ip), vehicle: saline",97 % of control
O=C(Nc1cccnc1)c1ccccc1,T/C,"dose: 6.25 mg/kg/injection, schedule: Q04DX003 (ip), vehicle: saline with Tween-80",92 % of control
same,T/C,"dose: 12.5 mg/kg/injection, schedule: Q04DX003 (ip), vehicle: saline with Tween-80",97 % of control
same,T/C,"dose: 25.0 mg/kg/injection, schedule: Q04DX003 (ip), vehicle: saline with Tween-80",99 % of control
CC1C(N2CCOCC2)CS1(=O)=O (centres undefined),T/C,[7],92 % of control
same,T/C,[10],93 % of control
same,T/C,[8],94 % of control
same,T/C,[11],98 % of control
same,T/C,[9],103 % of control
same,T/C,[12],98 % of control
Cn1cnc(=O)c2ccccc21,T/C,[13],88 % of control
same,T/C,"dose: 200.0 mg/kg/injection, schedule: Q04DX003 (ip), vehicle: saline",100 % of control
Cc1ccc([N+](=O)[O-])cc1P(=O)(O)c1cc([N+](=O)[O-])ccc1C,T/C,"dose: 100.0 mg/kg/injection, schedule: Q01DX001 (ip), vehicle: acetone",94 % of control
same,T/C,[2],103 % of control
same,T/C,"dose: 200.0 mg/kg/injection, schedule: Q01DX001 (ip), vehicle: acetone",94 % of control
same,T/C,[4],92 % of control
same,T/C,"dose: 400.0 mg/kg/injection, schedule: Q01DX001 (ip), vehicle: acetone",93 % of control
same,T/C,[6],100 % of control
O=C(Nc1ccc(S(=O)(=O)F)c(Cl)c1)Oc1ccccc1,T/C,[1],96 % of control
same,T/C,[3],96 % of control
same,T/C,[5],96 % of control
CCC(C(O)c1ccc(F)cc1)C(O)(C(F)(F)F)C(F)(F)F (centres undefined),T/C,"dose: 50.0 mg/kg/injection, schedule: Q01DX009 (ip), vehicle: other",93 % of control
same,T/C,"dose: 100.0 mg/kg/injection, schedule: Q01DX009 (ip), vehicle: other",102 % of control
same,T/C,[14],101 % of control
same,T/C,"dose: 200.0 mg/kg/injection, schedule: Q01DX009 (ip), vehicle: other",98 % of control
same,T/C,[15],100 % of control
same,T/C,[16],90 % of control
CCOC(=S)SC/C=C/CSC(=S)OCC,T/C,[17],97 % of control
same,T/C,[18],103 % of control
same,T/C,[19],107 % of control
Oc1ccc(Br)cc1-c1nc2cc3ccccc3cc2nc1-c1cc(Br)ccc1O,T/C,[1],103 % of control
same,T/C,[3],96 % of control
same,T/C,[5],94 % of control
CC1Nc2ccccc2N2C(=O)CCC12 (centres undefined),T/C,"dose: 50.0 mg/kg/injection, schedule: Q01DX009 (ip), vehicle: Klucel (hydroxypropylcellulose) (HPC)",106 % of control
same,T/C,[7],103 % of control
same,T/C,[8],106 % of control
CCCCCCCCCCCCOP(=O)(OCC)OCC,T/C,[17],88 % of control
same,T/C,[18],88 % of control
same,T/C,[19],88 % of control
Cc1ccc(C(SCC(N)C(=O)O)(c2ccccc2)c2ccc(C)cc2)cc1 (centres undefined),T/C,"dose: 6.25 mg/kg/injection, schedule: Q01DX009 (ip), vehicle: other",124 % of control
same,T/C,"dose: 12.5 mg/kg/injection, schedule: Q01DX009 (ip), vehicle: other",152 % of control
same,T/C,"dose: 12.5 mg/kg/injection, schedule: Q01DX009 (ip), vehicle: saline",156 % of control and 197 % of control
same,T/C,"dose: 25.0 mg/kg/injection, schedule: Q01DX009 (ip), vehicle: other",164 % of control
same,T/C,"dose: 25.0 mg/kg/injection, schedule: Q01DX009 (ip), vehicle: saline",179 % of control and 195 % of control
same,T/C,"dose: 50.0 mg/kg/injection, schedule: Q01DX009 (ip), vehicle: saline",113 % of control and 88 % of control
CCOC(=O)C(C)(N)CCOCc1ccccc1 (centres undefined),T/C,[20],100 % of control
same,T/C,[21],102 % of control
same,T/C,[22],100 % of control
same,T/C,[23],104 % of control
Nc1cc(F)c([N+](=O)[O-])cc1[N+](=O)[O-],T/C,"dose: 8.0 mg/kg/injection, schedule: Q01DX015 (ip), vehicle: carboxymethylcellulose (CMC)",89 % of control
same,T/C,"dose: 16.0 mg/kg/injection, schedule: Q01DX015 (ip), vehicle: carboxymethylcellulose (CMC)",91 % of control
same,T/C,"dose: 32.0 mg/kg/injection, schedule: Q01DX015 (ip), vehicle: carboxymethylcellulose (CMC)",102 % of control
O=C(O)Cn1cnc2cncnc21,T/C,[14],118 % of control
same,T/C,[15],104 % of control
same,T/C,[16],102 % of control
CN=C(NCc1ccccc1)c1ccc(NC(=O)c2ccc(C(=O)Nc3ccc(C(=NC)NCc4ccccc4)cc3)cc2)cc1,T/C,"dose: 1.9 mg/kg/injection, schedule: Q01DX Z (ip), vehicle: methylcellulose (MC)",97 % of control
same,T/C,"dose: 3.8 mg/kg/injection, schedule: Q01DX Z (ip), vehicle: methylcellulose (MC)",108 % of control
same,T/C,"dose: 7.5 mg/kg/injection, schedule: Q01DX Z (ip), vehicle: methylcellulose (MC)",93 % of control
O=C(O)COc1ccc(Cl)cc1,T/C,[10],97 % of control
same,T/C,[11],100 % of control
same,T/C,[12],100 % of control
CCOC(=O)CNC(=O)C(=[N+]=[N-])C(=O)COc1ccc(F)cc1,T/C,[20],104 % of control
same,T/C,[21],95 % of control
same,T/C,[22],101 % of control
same,T/C,[23],90 % of control
CN(C)c1ccc(C2SCSCS2)cc1,T/C,[10],97 % of control
same,T/C,[11],101 % of control
same,T/C,[12],95 % of control
O=C(Nc1ncc([N+](=O)[O-])s1)C(F)(F)F,T/C,"dose: 50.0 mg/kg/injection, schedule: Q01DX001 (ip), vehicle: saline",97 % of control
same,T/C,[1],92 % of control
same,T/C,[3],90 % of control
same,T/C,[5],105 % of control
CC(=O)OCOC1C(COC(C)=O)OCOC(COC(C)=O)C1OCOC(C)=O (centres undefined),T/C,[24],103 % of control
same,T/C,[25],103 % of control
same,T/C,"dose: 400.0 mg/kg/injection, schedule: Q01DX001 (ip), vehicle: Klucel (hydroxypropylcellulose) (HPC)",110 % of control
CCOC(=O)C(CC(=O)O)=C1c2ccccc2-c2ccccc21,T/C,[24],100 % of control
same,T/C,[7],95 % of control and 102 % of control
same,T/C,"dose: 100.0 mg/kg/injection, schedule: Q04DX002 (ip), vehicle: Klucel (hydroxypropylcellulose) (HPC)",95 % of control and 102 % of control
same,T/C,[25],94 % of control
same,T/C,[8],95 % of control and 96 % of control
same,T/C,"dose: 200.0 mg/kg/injection, schedule: Q04DX002 (ip), vehicle: Klucel (hydroxypropylcellulose) (HPC)",96 % of control and 98 % of control
COC(=O)CCSP(=S)(Oc1ccccc1)Oc1ccccc1,T/C,[7],107 % of control
same,T/C,[8],105 % of control
same,T/C,[9],96 % of control
C[P+]1(CCc2ccc(Cl)cc2)CC=CC1,T/C,"dose: 25.0 mg/kg/injection, schedule: Q04DX003 (ip), vehicle: saline",93 % of control
same,T/C,"dose: 50.0 mg/kg/injection, schedule: Q04DX003 (ip), vehicle: saline",103 % of control
same,T/C,[13],96 % of control and 88 % of control
CCOC(=O)c1cc2ccccc2c2ccccc12,T/C,[14],98 % of control
same,T/C,[15],95 % of control
same,T/C,[16],98 % of control
